Experimental data as given in US5998442A, “Benzo [B] thiophene compounds, and compositions for treating bone loss, and hyperlipidemia” (Eli Lilly and Company, priority 1997, dated 1999).
Each block holds one molecule with its values, some of them ahead of it.

Columns and labels:
[1] = system: serum cholesterol, ovariectomized rats; test: Serum cholesterol in ovariectomized rats (4 days daily oral dosing); assay type: in vivo, rat (female Sprague Dawley); settings: for inhibition in vivo at 0.1 mg/kg: 0.1 mg/kg PO; for inhibition in vivo at 1 mg/kg: 1.0 mg/kg PO; for inhibition in vivo at 10 mg/kg: 10.0 mg/kg PO
Description: (§1) In the examples illustrating the methods, a postmenopausal model was used in which effects of different treatments upon circulating lipids were determined.
(§2) Seventy-five day old female Sprague Dawley rats (weight range of 200 to 225 g) were obtained from Charles River Laboratories (Portage, Mich.). The animals were either bilaterally ovariectomized (OVX) or exposed to a Sham surgical procedure at Charles River Laboratories, and then shipped after one week. Upon arrival, they were housed in metal hanging cages in groups of 3 or 4 per cage and had ad libitum access to food (calcium content approximately 0.5%) and water for one week. Room temperature was maintained at 22.2°±1.70° C. with a minimum relative humidity of 40%. The photoperiod in the room was 12 hours light and 12 hours dark.
(§3) After a one week acclimation period (therefore, two weeks post-OVX) daily dosing with test compound was initiated. […] Animals were dosed daily for 4 days. Following the dosing regimen, animals were weighed and anesthetized with a ketamine: Xylazine (2:1, V:V) mixture and a blood sample was collected by cardiac puncture. The animals were then sacrificed by asphyxiation with CO2, the uterus was removed through a midline incision, and a wet uterine weight was determined.
Blood samples were allowed to clot at room temperature for 2 hours, and serum was obtained following centrifugation for 10 minutes at 3000 rpm. Serum cholesterol was determined using a Boehringer Mannheim Diagnostics high performance cholesterol assay. Briefly the cholesterol was oxidized to cholest-4-en-3-one and hydrogen peroxide. The hydrogen peroxide was then reacted with phenol and 4-aminophenazone in the presence of peroxidase to produce a p-quinone imine dye, which was read spectrophotemetrically at 500 nm. Cholesterol concentration was then calculated against a standard curve. The entire assay was automated using a Biomek Automated Workstation. […]
(§4) The data presented in Table 1 below reflects the response of 5 to 6 rats per treatment.

[2] = system: bone, ovariectomized rats; test: Osteoporosis Test Procedure: bone loss in ovariectomized rats (summary); assay type: in vivo, rat; settings: orally administered
Description: (§5) Following the General Preparation Procedure, infra, the rats were treated daily for 35 days (6 rats per treatment group) and sacrificed by carbon dioxide asphyxiation on the 36th day. The 35 day time period was sufficient to allow maximal reduction in bone density, measured as described herein. At the time of sacrifice, the uteri were removed, dissected free of extraneous tissue, and the fluid contents were expelled before determination of wet weight in order to confirm estrogen deficiency associated with complete ovariectomy. […] The uteri were then placed in 10% neutral buffered formalin to allow for subsequent histological analysis. The right femurs were excised and digitilized x-rays generated and analyzed by an image analysis program (NIH image) at the distal metaphysis. The proximal aspect of the tibiae from these animals were also scanned by quantitative computed tomography. […] Distal femur metaphysis and proximal tibiae data presented in Tables 2 and 3 below, respectively are the results of formula I compound treatments compared to intact and ovariectomized test animals. Results are reported as percent protection relative to ovariectomy.

[3] = system: uterus, ovariectomized rats; test: Uterine weight in ovariectomized rats (4 days daily oral dosing); assay type: in vivo, rat (female Sprague Dawley); settings: for change in vivo at 0.1 mg/kg: 0.1 mg/kg PO; for change in vivo at 1 mg/kg: 1.0 mg/kg PO; for change in vivo at 10 mg/kg: 10.0 mg/kg PO
Description: as §1, §2, §3
This uterine response to estrogen is well recognized in the art.
as §4

[4] = system: Proximal Tibiae, ovariectomized rats; test: Osteoporosis Test Procedure: proximal tibiae quantitative computed tomography; assay type: in vivo, rat; settings: 35 days
Description: as §5

[5] = system: Distal Femur Metaphysis, ovariectomized rats; test: Osteoporosis Test Procedure: distal femur metaphysis X-ray image analysis; assay type: in vivo, rat; settings: 35 days
Description: as §5

[6] = system: Uterine Eosinophil Peroxidase (EPO); test: Uterine Eosinophil Peroxidase (EPO) Assay in ovariectomized rats; assay type: in vivo, rat (female Sprague Dawley); parameters: Uterine EPO (Vmax): unit not given here
Text: as §2, §3
Uteri were kept at 4° C. until time of enzymatic analysis. The uteri were then homogenized in 50 volumes of 50 mM Tris buffer (pH-8.0) containing 0.005% Triton X-100. Upon addition of 0.01% hydrogen peroxide and 10 mM O-phenylenediamine (final concentrations) in Tris buffer, increase in absorbance was monitored for one minute at 450 nm. The presence of eosonophils in the uterus is an indication of estrogenic activity of a compound. The maximal velocity of a 15 second interval was determined over the initial, linear portion of the reaction curve.
As is expressed in the data below, estrogenicity also was assessed by evaluating the adverse response of eosinophil infiltration into the uterus.
as §4

[7] = system: MCF-7 breast adenocarcinoma cells; test: MCF-7 Proliferation Assay (tritiated thymidine); assay type: cell-based; settings: Homo sapiens, MCF7, 48 hours, read-out: IC50
Description: MCF-7 breast adenocarcinoma cells (ATCC HTB 22) were maintained in MEM (minimal essential medium, phenol red-free, Sigma, St. Louis, Mo.) supplimented with 10% fetal bovine serum (FBS) (V/V), L-glutamine (2 mM), sodium pyruvate (1 mM), HEPES {(N-[2-hydroxyethyl]piperazine-N'-[2-ethanesulfonic acid]10 mM}, non-essential amino acids and bovine insulin (1 ug/mL) (maintenance medium). Ten days prior to assay, MCF-7 cells were switched to maintenance medium supplemented with 10% dextran coated charcoal stripped fetal bovine serum (DCC-FBS) assay medium) in place of 10% FBS to deplete internal stores of steroids. MCF-7 cells were removed from maintenance flasks using cell dissociation medium (Ca++/Mg++ free HBSS (phenol red-free) supplemented with 10 mM HEPES and 2 mM EDTA). Cells were washed twice with assay medium and adjusted to 80,000 cells/mL. Approximately […] (8,000 cells) were added to flat-bottom microculture wells (Costar 3596) and incubated at 37° C. in a 5% CO2 humidified incubator for 48 hours to allow for cell adherence and equilibration after transfer. Serial dilutions of drugs or DMSO as a diluent control were prepared in assay medium and […] to triplicate microcultures followed by […] assay medium for a final volume of […]. After an additional 48 hours at 37° C. in a 5% CO2 humidified incubator, microcultures were pulsed with tritiated thymidine (1 uCi/well) for 4 hours. Cultures were terminated by freezing at -70° C. for 24 hours followed by thawing and harvesting of microcultures using a Skatron Semiautomatic Cell Harvester. Samples were counted by liquid scintillation using a Wallac BetaPlace b counter. Results in Table 4 below show the IC50 for certain compounds of the instant invention. […]

[8] = orally administered at 0.1 mg/kg/day
[9] = Rattus norvegicus, 96 h, read-out: Serum Cholesterol (% decrease vs. OVX)
[10] = Rattus norvegicus, 96 h, read-out: Uterine weight (% increase vs. OVX)

IC50 [7]: 0.3 nM
Structure (SMILES): O=C(c1ccc(OCCN2CCCCC2)cc1)c1c(-c2ccc(O)c(F)c2)sc2cc(O)ccc12 [Example 2, [2-(3-fluoro-4-hydroxyphenyl)-6-hydroxybenzo[b]thien-3-yl][4-[2-(1-piperidinyl)ethoxy]phenyl]methanone]
Uterine EPO (Vmax) ([6]; 0.01 mg/kg PO): 4.8 | Uterine EPO (Vmax) ([6]; 0.1 mg/kg PO): 4.8 | Uterine EPO (Vmax) ([6]; 1.0 mg/kg PO): 4.8 | Uterine EPO (Vmax) ([6]; 10.0 mg/kg PO): 3.6 | inhibition in vivo at 0.01 mg/kg ([1]; Rattus norvegicus, 96 h, 0.01 mg/kg PO, read-out: Serum Cholesterol (% decrease vs. OVX)): 21.7% | inhibition in vivo at 0.1 mg/kg [1, 9]: 48.1% | inhibition in vivo at 1 mg/kg [1, 9]: 64.7% | inhibition in vivo at 10 mg/kg [1, 9]: 47.8% | change in vivo at 0.01 mg/kg ([3]; Rattus norvegicus, 96 h, 0.01 mg/kg PO, read-out: Uterine weight (% increase vs. OVX)): 3.2% | change in vivo at 0.1 mg/kg [3, 10]: 53.3% | change in vivo at 1 mg/kg [3, 10]: 53.7% | change in vivo at 10 mg/kg [3, 10]: 25.9% | Distal Femur Metaphysis (X-ray Image Analysis-Gray Score), percent protection relative to ovariectomy ([5]; 0.01 mg/kg oral): 34.5% | Distal Femur Metaphysis (X-ray Image Analysis-Gray Score), percent protection relative to ovariectomy ([5]; 0.1 mg/kg oral): 34.1% | Distal Femur Metaphysis (X-ray Image Analysis-Gray Score), percent protection relative to ovariectomy ([5]; 1.0 mg/kg oral): 68.0% | Distal Femur Metaphysis (X-ray Image Analysis-Gray Score), percent protection relative to ovariectomy ([5]; 10.0 mg/kg oral): 70.0%

IC50 [7]: 2.5 nM
Structure (SMILES): O=C(c1ccc(OCCN2CCCCC2)cc1)c1c(-c2cccc(F)c2)sc2cc(O)ccc12 [Example 22, [2-(3-Fluorophenyl)-6-hydroxybenzothien-3-yl] [4-[2-(1-piperidinyl)ethoxy]phenyl]methanone]
Uterine EPO (Vmax) ([6]; 0.1 mg/kg PO): 4.8 | Uterine EPO (Vmax) ([6]; 1.0 mg/kg PO): 7.8 | Uterine EPO (Vmax) ([6]; 10.0 mg/kg PO): 12.0 | inhibition in vivo at 0.1 mg/kg [1, 9]: 18.6% | inhibition in vivo at 1 mg/kg [1, 9]: 62% | inhibition in vivo at 10 mg/kg [1, 9]: 67.3% | change in vivo at 0.1 mg/kg [3, 10]: 53.2% | change in vivo at 1 mg/kg [3, 10]: 62.8% | change in vivo at 10 mg/kg [3, 10]: 26.9%

Further lines, the molecule ahead of its results:

Structure (SMILES): C#C[C@]1(O)CC[C@H]2[C@@H]3CCc4cc(O)ccc4[C@H]3CC[C@@]21C [EE2, 17a-ethynyl estradiol, reference compound]
serum cholesterol (in words) [1, 8]: caused a decrease in serum cholesterol | prevention of bone loss (in words) [2]: prevented this loss | uterine weight (in words) [3, 8]: substantially greater than the uterine weight of ovariectomized test animals | Proximal Tibiae Total Bone Mineral Density (Quantitative Computed Tomography), percent protection relative to ovariectomy ([4]; 0.1 mg/kg oral): 59.4% | Distal Femur Metaphysis (X-ray Image Analysis-Gray Score), percent protection relative to ovariectomy ([5]; oral, dose not given): 80.7%

Structure (SMILES): O=C(c1ccc(OCCN2CCCCC2)cc1)c1c(-c2cccc(O)c2)sc2cc(O)ccc12 [Example 12, [2-(3-Hydroxyphenyl)-6-hydroxybenzo[b]thien-3-yl][4-[2-(1-piperidinyl)ethoxy]phenyl]methanone]
Uterine EPO (Vmax) ([6]; 0.1 mg/kg PO): 2.0 | Uterine EPO (Vmax) ([6]; 1.0 mg/kg PO): 2.6 | Uterine EPO (Vmax) ([6]; 10.0 mg/kg PO): 2.4 | IC50 [7]: 3.2 nM | inhibition in vivo at 0.1 mg/kg [1, 9]: 24.3% | inhibition in vivo at 1 mg/kg [1, 9]: 52.3% | inhibition in vivo at 10 mg/kg [1, 9]: 49.1% | change in vivo at 0.1 mg/kg [3, 10]: 15.5% | change in vivo at 1 mg/kg [3, 10]: 22.7% | change in vivo at 10 mg/kg [3, 10]: 16.7% | Proximal Tibiae Total Bone Mineral Density (Quantitative Computed Tomography), percent protection relative to ovariectomy ([4]; 0.1 mg/kg oral): -30.9% | Proximal Tibiae Total Bone Mineral Density (Quantitative Computed Tomography), percent protection relative to ovariectomy ([4]; 1.0 mg/kg oral): 51.5% | Proximal Tibiae Total Bone Mineral Density (Quantitative Computed Tomography), percent protection relative to ovariectomy ([4]; 10.0 mg/kg oral): 79.7%

Structure (SMILES): COc1ccc2c(C(=O)c3ccc(OCCN4CCCCC4)cc3)c(-c3cccc(F)c3)sc2c1 [Example 21, [2-(3-Fluorophenyl)-6-methoxybenzo[b]thien-3-yl] [4-[2-(1-piperidinyl)ethoxy]phenyl]methanone]
Uterine EPO (Vmax) ([6]; 0.1 mg/kg PO): 4.5 | Uterine EPO (Vmax) ([6]; 1.0 mg/kg PO): 4.8 | Uterine EPO (Vmax) ([6]; 10.0 mg/kg PO): 7.5 | IC50 [7]: 500 nM | inhibition in vivo at 0.1 mg/kg [1, 9]: 1.4% | inhibition in vivo at 1 mg/kg [1, 9]: -12% | inhibition in vivo at 10 mg/kg [1, 9]: 60.5% | change in vivo at 0.1 mg/kg [3, 10]: 14.9% | change in vivo at 1 mg/kg [3, 10]: 4.1% | change in vivo at 10 mg/kg [3, 10]: 25.3%

Structure (SMILES): Cc1ccccc1-c1sc2cc(O)ccc2c1C(=O)c1ccc(OCCN2CCCCC2)cc1 [Example 23, [2-(2-Methylphenyl)-6-hydroxybenzo[b]thien-3-yl] [4-[2-(1-piperidinyl)ethoxy]phenyl]methanone]
Uterine EPO (Vmax) ([6]; 0.1 mg/kg PO): 12.0 | Uterine EPO (Vmax) ([6]; 1.0 mg/kg PO): 8.4 | Uterine EPO (Vmax) ([6]; 10.0 mg/kg PO): 8.1 | IC50 [7]: 0.7 nM | inhibition in vivo at 0.1 mg/kg [1, 9]: 31.7% | inhibition in vivo at 1 mg/kg [1, 9]: 38.6% | inhibition in vivo at 10 mg/kg [1, 9]: 29.3% | change in vivo at 0.1 mg/kg [3, 10]: 8.5% | change in vivo at 1 mg/kg [3, 10]: 12% | change in vivo at 10 mg/kg [3, 10]: 10.9%
